Laboratory results reported in PubChem BioAssay AID248 (DTP/NCI, 2004).
“And” between values parts separate entries of the source, which are not always exact repeats. Equal entries are not always repeated. Toxic doses and inconclusive results are not listed. Rule as the data show it: active = T/C of 150% or more; inactive = T/C below 125%.

System: L1210 leukemia ip in BDF1 mice, survival T/C
Assay: NCI In Vivo Anticancer Drug Screen. Data for tumor model L1210 Leukemia (intraperitoneal) in B6D2F1 (BDF1) mice
Details: endpoint: mean survival time, higher = longer survival
Method in brief: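 Each compound was tested against a transplantable tumor grown in mice. The endpoint was survival, with treated animals benchmarked against vehicle controls as a simple ratio.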

[1] = dose: 100.0 mg/kg/injection, schedule: Q01DX001 (ip), vehicle: saline
[2] = dose: 200.0 mg/kg/injection, schedule: Q01DX001 (ip), vehicle: saline
[3] = dose: 400.0 mg/kg/injection, schedule: Q01DX001 (ip), vehicle: saline
[4] = dose: 100.0 mg/kg/injection, schedule: Q01DX009 (ip), vehicle: Klucel (hydroxypropylcellulose) (HPC)
[5] = dose: 200.0 mg/kg/injection, schedule: Q01DX009 (ip), vehicle: Klucel (hydroxypropylcellulose) (HPC)
[6] = dose: 400.0 mg/kg/injection, schedule: Q01DX009 (ip), vehicle: Klucel (hydroxypropylcellulose) (HPC)
[7] = dose: 100.0 mg/kg/injection, schedule: Q04DX002 (ip), vehicle: Klucel (hydroxypropylcellulose) (HPC)
[8] = dose: 200.0 mg/kg/injection, schedule: Q04DX002 (ip), vehicle: Klucel (hydroxypropylcellulose) (HPC)
[9] = dose: 400.0 mg/kg/injection, schedule: Q04DX002 (ip), vehicle: Klucel (hydroxypropylcellulose) (HPC)
[10] = dose: 100.0 mg/kg/injection, schedule: Q01DX009 (ip), vehicle: saline with Tween-80
[11] = dose: 100.0 mg/kg/injection, schedule: Q04DX003 (ip), vehicle: saline with Tween-80
[12] = dose: 200.0 mg/kg/injection, schedule: Q04DX003 (ip), vehicle: saline with Tween-80
[13] = dose: 400.0 mg/kg/injection, schedule: Q04DX003 (ip), vehicle: saline with Tween-80

Measured: T/C

Cc1c(Cl)c(CCl)c(Cl)c(CCl)c1Cl
inactive: dose: 100.0 mg/kg/injection, schedule: Q01DX001 (ip), vehicle: Klucel (hydroxypropylcellulose) (HPC) 94 % of control | dose: 200.0 mg/kg/injection, schedule: Q01DX001 (ip), vehicle: Klucel (hydroxypropylcellulose) (HPC) 92 % of control | dose: 400.0 mg/kg/injection, schedule: Q01DX001 (ip), vehicle: Klucel (hydroxypropylcellulose) (HPC) 89 % of control

COc1ccc(N(N=Nc2ccccc2)C(C)=O)cc1
inactive: dose: 40.0 mg/kg/injection, schedule: Q01DX009 (ip), vehicle: Klucel (hydroxypropylcellulose) (HPC) 96 % of control | dose: 75.0 mg/kg/injection, schedule: Q01DX001 (ip), vehicle: Klucel (hydroxypropylcellulose) (HPC) 96 % of control | dose: 75.0 mg/kg/injection, schedule: Q01DX009 (ip), vehicle: Klucel (hydroxypropylcellulose) (HPC) 101 % of control | dose: 150.0 mg/kg/injection, schedule: Q01DX001 (ip), vehicle: Klucel (hydroxypropylcellulose) (HPC) 90 % of control | dose: 150.0 mg/kg/injection, schedule: Q01DX009 (ip), vehicle: Klucel (hydroxypropylcellulose) (HPC) 112 % of control | dose: 300.0 mg/kg/injection, schedule: Q01DX001 (ip), vehicle: Klucel (hydroxypropylcellulose) (HPC) 86 % of control

CNc1ccc(C(=O)O)c(Cl)c1
inactive: dose: 75.0 mg/kg/injection, schedule: Q01DX001 (ip), vehicle: saline 95 % of control | dose: 75.0 mg/kg/injection, schedule: Q04DX003 (ip), vehicle: saline 97 % of control | dose: 150.0 mg/kg/injection, schedule: Q01DX001 (ip), vehicle: saline 98 % of control | dose: 150.0 mg/kg/injection, schedule: Q04DX003 (ip), vehicle: saline 111 % of control | dose: 300.0 mg/kg/injection, schedule: Q01DX001 (ip), vehicle: saline 93 % of control | dose: 300.0 mg/kg/injection, schedule: Q04DX003 (ip), vehicle: saline 103 % of control

C=CCSc1n[nH]c(=O)[nH]c1=O
inactive: [1] 111 % of control | [2] 92 % of control | [3] 103 % of control

COC12CC(COC(=O)c3cncc(Br)c3)CN(C)C1Cc1cn(C)c3cccc2c13 (centres undefined)
inactive: [4] 100 % of control | [5] 116 % of control | [6] 113 % of control

NC(=O)Nc1nc(-c2ccccc2)cc(-c2ccccc2O)n1
inactive: [7] 91 % of control | [8] 91 % of control | [9] 102 % of control

COc1ccc2c(c1)c1c(C)c3cnccc3c(C)c1n2CCCN
inactive: dose: 0.5 mg/kg/injection, schedule: Q01DX009 (ip), vehicle: saline 96 % of control | dose: 1.0 mg/kg/injection, schedule: Q01DX009 (ip), vehicle: saline 102 % of control | dose: 3.0 mg/kg/injection, schedule: Q01DX009 (ip), vehicle: saline 104 % of control | dose: 3.0 mg/kg/injection, schedule: Q04DX003 (ip), vehicle: saline 104 % of control | dose: 6.0 mg/kg/injection, schedule: Q01DX009 (ip), vehicle: saline 112 % of control | dose: 6.0 mg/kg/injection, schedule: Q04DX003 (ip), vehicle: saline 104 % of control | dose: 12.0 mg/kg/injection, schedule: Q01DX009 (ip), vehicle: saline 106 % of control | dose: 12.0 mg/kg/injection, schedule: Q04DX003 (ip), vehicle: saline 107 % of control

O=c1nc(NCCc2cnc[nH]2)nc(NCCc2cnc[nH]2)[nH]1
inactive: dose: 50.0 mg/kg/injection, schedule: Q01DX009 (ip), vehicle: Klucel (hydroxypropylcellulose) (HPC) 100 % of control | [4] 100 % of control | [5] 92 % of control

CCCCCCCCCCCCCCCC[n+]1ccccc1
inactive: dose: 0.12 mg/kg/injection, schedule: Q01DX Z (ip), vehicle: water 101 % of control | dose: 0.25 mg/kg/injection, schedule: Q01DX Z (ip), vehicle: water 101 % of control | dose: 0.5 mg/kg/injection, schedule: Q01DX Z (ip), vehicle: water 108 % of control | dose: 1.0 mg/kg/injection, schedule: Q01DX Z (ip), vehicle: water 103 % of control

CCOC(=O)n1cnc2ncnc(SC)c21
inactive: dose: 25.0 mg/kg/injection, schedule: Q01DX015 (ip), vehicle: saline 102 % of control | dose: 50.0 mg/kg/injection, schedule: Q01DX001 (ip), vehicle: carboxymethylcellulose (CMC) 94 % of control and 106 % of control | dose: 50.0 mg/kg/injection, schedule: Q01DX015 (ip), vehicle: saline 96 % of control | dose: 100.0 mg/kg/injection, schedule: Q01DX001 (ip), vehicle: carboxymethylcellulose (CMC) 109 % of control and 114 % of control | dose: 100.0 mg/kg/injection, schedule: Q01DX015 (ip), vehicle: saline 103 % of control | dose: 200.0 mg/kg/injection, schedule: Q01DX001 (ip), vehicle: carboxymethylcellulose (CMC) 88 % of control | dose: 200.0 mg/kg/injection, schedule: Q01DX015 (ip), vehicle: saline 91 % of control | dose: 400.0 mg/kg/injection, schedule: Q01DX001 (ip), vehicle: carboxymethylcellulose (CMC) 109 % of control

CCCN1CCN(c2ccccc2)CC1
inactive: dose: 25.0 mg/kg/injection, schedule: Q04DX003 (ip), vehicle: saline 90 % of control | dose: 50.0 mg/kg/injection, schedule: Q04DX003 (ip), vehicle: saline 97 % of control | dose: 100.0 mg/kg/injection, schedule: Q04DX003 (ip), vehicle: saline 92 % of control

COc1ccccc1/C(=C/c1ccc([N+](=O)[O-])cc1)C(=O)Nc1ccc(S(=O)(=O)F)cc1
inactive: [4] 103 % of control | [5] 92 % of control | [6] 100 % of control

CCc1cc(S(=O)(=O)O)c(CC)c(CC)c1CC
inactive: [10] 97 % of control

CNc1nc[nH]c(=O)c1NC(=O)c1ccccc1
inactive: dose: 45.0 mg/kg/injection, schedule: Q01DX001 (ip), vehicle: Klucel (hydroxypropylcellulose) (HPC) 103 % of control | dose: 90.0 mg/kg/injection, schedule: Q01DX001 (ip), vehicle: Klucel (hydroxypropylcellulose) (HPC) 95 % of control | dose: 180.0 mg/kg/injection, schedule: Q01DX001 (ip), vehicle: Klucel (hydroxypropylcellulose) (HPC) 92 % of control

CO/C(C)=C(/C#N)C(N)=S
inactive: dose: 100.0 mg/kg/injection, schedule: Q04DX002 (ip), vehicle: saline with Tween-80 93 % of control | dose: 200.0 mg/kg/injection, schedule: Q04DX002 (ip), vehicle: saline with Tween-80 97 % of control | dose: 400.0 mg/kg/injection, schedule: Q04DX002 (ip), vehicle: saline with Tween-80 101 % of control

Cc1ccccc1Sc1cc2ccccc2c2ccccc12
inactive: [1] 94 % of control | [10] 96 % of control | [2] 97 % of control | dose: 200.0 mg/kg/injection, schedule: Q01DX009 (ip), vehicle: saline with Tween-80 98 % of control | [3] 94 % of control | dose: 400.0 mg/kg/injection, schedule: Q01DX009 (ip), vehicle: saline with Tween-80 101 % of control

COC(=O)c1ccc(N(C)Cc2cnc3[nH]c(N)nc(=S)c3n2)cc1
inactive: dose: 50.0 mg/kg/injection, schedule: Q01DX001 (ip), vehicle: saline with Tween-80 100 % of control | dose: 100.0 mg/kg/injection, schedule: Q01DX001 (ip), vehicle: saline with Tween-80 94 % of control | dose: 200.0 mg/kg/injection, schedule: Q01DX001 (ip), vehicle: saline with Tween-80 94 % of control

O=C(Cc1ccccc1)c1ccc(OCC2CO2)cc1 (centres undefined)
inactive: [11] 96 % of control | [12] 94 % of control | [13] 94 % of control

CN(C)C(=O)Nc1cccc(OC(=O)NC2CC2)c1
inactive: [11] 96 % of control | [12] 95 % of control | [13] 90 % of control

CCNC(=O)NCc1cc(C)ccc1C
inactive: [7] 111 % of control | [8] 108 % of control | [9] 108 % of control

CN(C)c1ccccc1C(=O)N/N=C/c1ccc(F)cc1
inactive: [4] 95 % of control | dose: 100.0 mg/kg/injection, schedule: Q04DX003 (ip), vehicle: Klucel (hydroxypropylcellulose) (HPC) 99 % of control | [5] 93 % of control | dose: 200.0 mg/kg/injection, schedule: Q04DX003 (ip), vehicle: Klucel (hydroxypropylcellulose) (HPC) 99 % of control | [6] 96 % of control | dose: 400.0 mg/kg/injection, schedule: Q04DX003 (ip), vehicle: Klucel (hydroxypropylcellulose) (HPC) 93 % of control
